Values joined by “and” are separate entries in the source; they are usually repeats but may differ in a detail not shown here. Equal entries are not always repeated.
Assays:
[1] = molecular target: ERβ (Homo sapiens, UniProt Q92731); experiment: ERβ reporter (luciferase) transactivation assay in transfected HEK293 cells; assay type: cell-based; parameters: expressed in transfected cells; host or cells: HEK293; conditions: for ERβ receptor activation relative to 10 nM E2 corresponding 100: sample concentration 10 μM, 24 hours, mean of at least three independent transfections; for activation at 10 µM: HEK293, 24 h, read-out: ERβ receptor activation relative to 10 nM E2 corresponding 100, sample concentration 10 μM, mean of at least three independent transfections
Description: (§1) Determination of the Estrogen Activity of the Compounds: Cell Culture, Transfection and Reporter Assays
(§2) All other reagents were of reagent grade from Sigma or Fluka. One day before transfection, HEK293 cells were seeded in 48-well plates (70×10^3 cells per well) in phenol-free Dulbecco's modified Eagle medium supplemented with 5% delipidated fetal bovine serum (Sigma) and antibiotics. After a medium change, the cells were transfected for 4 hours with 5 ng ERα or ERβ expression vector, 75 ng reporter plasmid pERE2TATA-LUC and 20 ng control plasmid pCMVβ by the calcium phosphate method. After transfection, the cells received fresh medium containing either vehicle (0.1% v/v) or test compound (10 μM). After 24 hours, the cells were washed, lysed and luciferase and β-galactosidase activities were determined from 20 μl of lysates with the Victor^2TM reader (PerkinElmer Wallac, Turku, Finland). […] The data are means ±SEM of at least three independent transfections.

[2] = molecular target: T1, ERα (Homo sapiens, UniProt P03372); experiment: ERα reporter (luciferase) transactivation assay in transfected HEK293 cells; assay type: cell-based; parameters: expressed in transfected cells; host or cells: HEK293; conditions: sample concentration 10 μM, 24 hours, mean of at least three independent transfections
T1 sequence (P03372 1-595): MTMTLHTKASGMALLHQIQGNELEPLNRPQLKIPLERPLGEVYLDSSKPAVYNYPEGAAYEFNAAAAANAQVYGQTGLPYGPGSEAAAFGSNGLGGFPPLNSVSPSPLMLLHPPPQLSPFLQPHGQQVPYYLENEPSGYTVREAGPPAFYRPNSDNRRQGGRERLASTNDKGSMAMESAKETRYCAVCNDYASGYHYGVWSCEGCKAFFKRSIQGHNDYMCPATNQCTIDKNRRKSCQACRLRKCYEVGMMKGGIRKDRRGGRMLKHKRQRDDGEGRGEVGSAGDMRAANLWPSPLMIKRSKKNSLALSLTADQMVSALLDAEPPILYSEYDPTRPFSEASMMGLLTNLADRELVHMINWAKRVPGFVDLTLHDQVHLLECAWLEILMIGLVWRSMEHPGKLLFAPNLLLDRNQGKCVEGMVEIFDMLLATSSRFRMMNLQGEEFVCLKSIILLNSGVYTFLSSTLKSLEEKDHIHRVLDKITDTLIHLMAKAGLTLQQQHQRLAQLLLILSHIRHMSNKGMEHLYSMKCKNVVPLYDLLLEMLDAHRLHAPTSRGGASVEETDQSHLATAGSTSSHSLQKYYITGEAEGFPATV
Description: as §1, §2

ERβ, sequence (Q92731 whole entry): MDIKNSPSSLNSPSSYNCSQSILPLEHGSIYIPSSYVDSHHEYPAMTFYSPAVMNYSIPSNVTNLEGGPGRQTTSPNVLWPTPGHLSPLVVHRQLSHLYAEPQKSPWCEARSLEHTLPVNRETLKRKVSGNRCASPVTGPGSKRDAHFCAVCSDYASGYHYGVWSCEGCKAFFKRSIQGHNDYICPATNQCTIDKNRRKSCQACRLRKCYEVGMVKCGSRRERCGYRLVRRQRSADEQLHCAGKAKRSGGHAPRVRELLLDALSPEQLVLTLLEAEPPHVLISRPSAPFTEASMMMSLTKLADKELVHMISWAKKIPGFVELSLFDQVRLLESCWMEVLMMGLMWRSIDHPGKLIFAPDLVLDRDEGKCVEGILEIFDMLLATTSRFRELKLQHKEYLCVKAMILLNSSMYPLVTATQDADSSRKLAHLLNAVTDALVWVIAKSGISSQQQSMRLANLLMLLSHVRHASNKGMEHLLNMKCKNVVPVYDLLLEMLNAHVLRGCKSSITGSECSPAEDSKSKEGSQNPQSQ

Compound	ERβ receptor activation relative to 10 nM E2 corresponding 100 [1] [%]	ERα receptor activation relative to 10 nM E2 corresponding 100 [2]	activation at 10 µM [1] [%]	melting point [°C]
c1ccc(CCC2CC(c3ccccc3)=NO2)cc1 (single isomer, unassigned) [111b, 5-Phenethyl-3-phenyl-4,5-dihydroisoxazole]	−6.0	1.1%	–	–
Fc1cccc(CC2=NOC(CCc3ccccc3)C2)c1 (stereo not shown) [69ab, 3-(3-Fluorobenzyl)-5-phenethyl-4,5-dihydroisoxazole]	–	19.5% and 19.7%	10.6	–
Oc1cccc(C2CC(Cc3ccccc3)=NO2)c1 (stereo not shown) [82ab, 3-Benzyl-5-(3-hydroxy-phenyl)-4,5-dihydro-isoxazole]	–	21.6%	6.6	–
c1ccc(CCC2CC(Cc3ccccc3)=NO2)cc1 (stereo not shown) [108ab, 3-Benzyl-5-phenethyl-4,5-dihydroisoxazole]	–	37.0%	1.2	–
COc1ccccc1C1=NOC(Cc2ccccc2)C1 (stereo not shown) [compound 6, 5-Benzyl-3-(2-methoxyphenyl)-4,5-dihydroisoxazole]	–	–	–	81 to 82
COc1ccc(C2=NOC(Cc3ccccc3)C2)cc1 (stereo not shown) [compound 12, 5-Benzyl-3-(4-methoxyphenyl)-4,5-dihydroisoxazole]	–	–	–	99.6 to 100.3
COc1ccc(CC2CC(c3ccc(OC)cc3)=NO2)cc1 (stereo not shown) [compound 15, 5-(4-Methoxybenzyl)-3-(4-methoxyphenyl)-4,5-dihydroisoxazole]	–	–	–	135.8 to 137.7
COc1ccc(C2=NOC(Cc3ccc(F)cc3)C2)cc1 (stereo not shown) [compound 18, 5-(4-Fluorobenzyl)-3-(4-methoxyphenyl)-4,5-dihydroisoxazole]	–	–	–	116.7 to 118.7
COc1ccc(C2=NOC(Cc3c(F)c(F)c(F)c(F)c3F)C2)cc1 (stereo not shown) [compound 19, 3-(4-methoxyphenyl)-5-pentafluorobenzyl-4,5-dihydroisoxazole]	–	–	–	123 to 124
Clc1ccc(C2=NOC(Cc3ccccc3)C2)cc1 (stereo not shown) [compound 33, 5-Benzyl-3-(4-Chlorophenyl)-4,5-dihydroisoxazole]	–	–	–	128.2 to 129.4
CCc1ccc(CC2CC(c3ccc(Cl)cc3)=NO2)cc1 (stereo not shown) [compound 34, 3-(4-Chlorophenyl)-5-(4-ethylbenzyl)-4,5-dihydroisoxazole]	–	–	–	117.1 to 119.2
COc1ccccc1CC1CC(c2ccc(Cl)cc2)=NO1 (stereo not shown) [compound 36, 3-(4-Chlorophenyl)-5-(2-methoxybenzyl)-4,5-dihydroisoxazole]	–	–	–	109.9 to 111.2

The next lines start with the values.

ERβ receptor activation relative to 10 nM E2 corresponding 100 [1] [%]	ERα receptor activation relative to 10 nM E2 corresponding 100 [2]	activation at 10 µM [1] [%]	melting point [°C]	Compound
13.6	31.3%	–	–	c1ccc(CCCC2=NOC(Cc3ccccc3)C2)cc1 (single isomer, unassigned) [114a, 5-Benzyl-3-(3-phenyl-propyl)-4,5-dihydro-isoxazole]
5.1	28.1%	–	–	c1ccc(CCCC2=NOC(Cc3ccccc3)C2)cc1 (single isomer, unassigned) [114b, 5-Benzyl-3-(3-phenyl-propyl)-4,5-dihydro-isoxazole]
0.2	3.4%	–	–	c1ccc(CCC2=NOC(CCc3ccccc3)C2)cc1 (single isomer, unassigned) [116a, 3,5-Di-phenethyl-4,5-dihydroisoxazole]
−0.4	43.9%	–	–	c1ccc(CCC2=NOC(CCc3ccccc3)C2)cc1 (single isomer, unassigned) [116b, 3,5-Di-phenethyl-4,5-dihydroisoxazole]
–	19.6%	34.4	–	c1ccc(CC2=NOC(c3ccccc3)C2)cc1 (stereo not shown) [112ab, 3-Benzyl-5-phenyl-4,5-dihydroisoxazole]
–	69.5%	15.5	–	CC1(c2ccccc2)CC(CCCc2ccccc2)=NO1 (stereo not shown) [115ab, 5-Methyl-5-phenyl-3-(3-phenyl-propyl)-4,5-dihydro-isoxazole]

From US20100267784A1, “NOVEL 4,5-DIHYDROISOXAZOLES WITH ESTROGENIC ACTIVITY” (priority 2007, published 2010)
